Data reported in patent publication US20230295087A1, “AGONISTS OF ROR GAMMAt” (BRISTOL-MYERS SQUIBB COMPANY, priority 2019, published 2023).
pEC50: −log10 of the molar value.

Biological target: T1, human RORgT (Homo sapiens, UniProt P51449)
T1 construct: expressed in transfected cells
T1 sequence (P51449 267-516): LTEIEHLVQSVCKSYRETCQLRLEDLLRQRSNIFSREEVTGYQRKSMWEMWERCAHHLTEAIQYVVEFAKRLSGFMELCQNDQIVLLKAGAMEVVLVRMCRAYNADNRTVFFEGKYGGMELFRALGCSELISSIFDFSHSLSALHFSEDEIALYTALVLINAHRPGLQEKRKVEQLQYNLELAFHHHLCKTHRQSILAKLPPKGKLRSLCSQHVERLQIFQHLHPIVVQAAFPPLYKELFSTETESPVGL
Experiment: RORgT Gal4 Luciferase Reporter Gene Assay
Assay type: cell-based
Conditions: engineered Jurkat cells overexpressing RORgT (LBD or full length) fused with Gal4 Luc reporter; 18 hours at 37° C.; luminescence
Method: RORgT Gal4 Luciferase Reporter Gene Assay
25 µL of cryopreserved Jurkat cells over expressing ligand binding domain (LBD) of RORgT (aa267-516, NM_005060) and Gal4 Luc, or full length of human RORgT and Gal4 Luc, were plated in 384-well solid white cell culture plates (PerkinElmer 6007899), with a density of 10,000 cells/well in RPMI 1640 cell culture media (Gibco 11875-085). The media contained 0.1% BSA, 10 mM HEPES (Gibco 15360-080), […] Sodium Pyruvate (Gibco 11360-040), […] Hygromycin B (Invitrogen 10687-010), and […] Blasticidin (Invitrogen R210-01).
100 nL of compound at varying concentrations in 3-fold serial dilution, with final concentrations ranging from 40 µM to 0.67 nM, were added to the cells using Labcyte Echo 550. The compound and the cells were incubated for 18 hours at 37° C. in a cell culture incubator. Cells were then lysed with 15 uL of Steady-Glo Luciferase Assay reagent (Promega EZ550), followed by centrifuging the assay plates at 1500 RPM for 1 minute. Subsequently, the plates were read on the Envision (PerkinElmer). The inhibition of constitutive activity of RORgT achieved by graded concentrations of compound was calculated as a percentage of the luminescence signal window reduction over a control compound.

CS(=O)(=O)N1CC[C@@]2(S(=O)(=O)c3ccccc3)c3ccc(OCc4c(Cl)cccc4Cl)cc3CC[C@@H]12 [Example 75, (3aR,9bR)-9b-(benzenesulfonyl)-7-[(2,6-dichlorophenyl)methoxy]-3-methanesulfonyl-1H,2H,3H,3aH,4H,5H,9bH-benzo[e]indole]
pEC50: 6.67

NC(=O)N1CCC(C(=O)N2CC[C@@]3(S(=O)(=O)c4ccc(F)cc4)c4ccc(OCc5c(F)cc(F)cc5Cl)cc4CC[C@@H]23)CC1 [Example 220, 4-[(3aR,9bR)-7-[(2-chloro-4,6-difluorophenyl)methoxy]-9b-(4-fluorobenzenesulfonyl)-1H,2H,3H,3aH,4H,5H,9bH-benzo[e]indole-3-carbonyl]piperidine-1-carboxamide]
pEC50: 7.89

O=C(Nc1ccncc1)N1CC[C@@]2(S(=O)(=O)c3ccccc3)c3ccc(OCc4c(Cl)cccc4Cl)cc3CC[C@@H]12 [Example 87, (3aR,9bR)-9b-(benzenesulfonyl)-7-[(2,6-dichlorophenyl)methoxy]-N-(pyridin-4-yl)-1H,2H,3H,3aH,4H,5H,9bH-benzo[e]indole-3-carboxamide]
pEC50: 7.41

O=C(C1CCS(=O)(=O)CC1)N1CC[C@@]2(S(=O)(=O)c3ccccc3)c3ccc(OCc4c(F)cccc4F)cc3CC[C@@H]12 [Example 133, 4-[(3aR,9bR)-9b-(benzenesulfonyl)-7-[(2,6-difluorophenyl)methoxy] -1H,2H,3H,3aH,4H,5H,9bH-benzo[e]indole-3-carbonyl]-1λ^6-thiane-1,1-dione]
pEC50: 7.77

O=C1CC[C@@H](C(=O)N2CC[C@@]3(S(=O)(=O)c4ccc(F)cc4)c4ccc(OCc5c(F)cccc5C(F)(F)F)cc4CC[C@@H]23)N1Cc1ccc(F)cc1 [Example 28, (5S)-5-[(3aR,9bR)-7-{[2-fluoro-6-(trifluoromethyl)phenyl]methoxy} -9b-(4-fluorobenzenesulfonyl)-1H,2H,3H,3aH,4H,5H,9bH-benzo[e]indole-3-carbonyl]-1-[(4-fluorophenyl)methyl]pyrrolidin-2-one]
pEC50: 8.09

CS(=O)(=O)N1CCC(C(=O)N2CC[C@@]3(S(=O)(=O)c4ccccc4)c4ccc(OCc5c(Cl)cccc5Cl)cc4CC[C@@H]23)CC1 [Example 60, 4-[(3aR,9bR)-9b-(benzenesulfonyl)-7-[(2,6-dichlorophenyl)methoxy]-1H,2H,3H,3aH,4H,5H,9bH-benzo[e]indole-3-carbonyl]-1-methanesulfonylpiperidine]
pEC50: 8.00

CC(C)(O)CNC(=O)N1CC[C@@]2(S(=O)(=O)c3ccccc3)c3ccc(OCc4c(Cl)cccc4Cl)cc3CC[C@@H]12 [Example 91, (3aR,9bR)-9b-(benzenesulfonyl)-7-[(2,6-dichlorophenyl)methoxy]-N-(2-hydroxy-2-methylpropyl)-1H,2H,3H,3aH,4H,5H,9bH-benzo[e]indole-3-carboxamide]
pEC50: 6.98

O=C(N1CCS(=O)(=O)CC1)N1CC[C@@]2(S(=O)(=O)c3ccccc3)c3ccc(OCc4c(Cl)cccc4Cl)cc3CC[C@@H]12 [Example 84, 4-[(3aR,9bR)-9b-(benzenesulfonyl)-7-[(2,6-dichlorophenyl)methoxy]-1H,2H,3H,3aH,4H,5H,9bH-benzo[e]indole-3-carbonyl]-1λ^6-thiomorpholine-1,1-dione]
pEC50: 7.82

O=C(C1CCC(B(O)O)CC1)N1CC[C@@]2(S(=O)(=O)c3ccc(F)cc3)c3ccc(OCc4c(F)cccc4C(F)(F)F)cc3CC[C@@H]12 (stereo partly drawn) [Example 14, (4-((3aR,9bR)-7-((2-fluoro-6-(trifluoromethyl)benzyl)oxy)-9b-((4-fluorophenyl)sulfonyl)-2,3,3a,4,5,9b-hexahydro-1H-benzo[e]indole-3-carbonyl)cyclohexyl)boronic acid]
pEC50: 8.74

O=C(C1CCS(=O)(=O)C1)N1CC[C@@]2(S(=O)(=O)c3ccc(F)cc3)c3ccc(OCc4c(F)cccc4Cl)cc3CC[C@@H]12 (stereo partly drawn) [Example 163, 3-[(3aR,9bR)-7-[(2-chloro-6-fluorophenyl)methoxy]-9b-(4-fluorobenzenesulfonyl)-1H,2H,3H,3aH,4H,5H,9bH-benzo[e]indole-3-carbonyl]-1λ^6-thiolane-1,1-dione]
pEC50: 7.92

O=C(O)[C@H]1CC[C@](O)(C(=O)N2CC[C@@]3(S(=O)(=O)c4ccc(F)cc4)c4ccc(OCc5c(F)cccc5C(F)(F)F)cc4CC[C@@H]23)CC1 [Example 27, (1 s,4 s)-4-[(3aR,9bR)-7-{ [2-fluoro-6-(trifluoromethyl)phenyl]methoxy} -9b-(4-fluorobenzenesulfonyl)-1H,2H,3H,3aH,4H,5H,9bH-benzo[e]indole-3-carbonyl] -4-hydroxycyclohexane-1-carboxylic acid]
pEC50: 7.00

O=C(C1CCS(=O)(=O)CC1)N1CC[C@@]2(S(=O)(=O)c3ccc(F)cc3)c3ccc(OCc4cc(F)ccc4Cl)cc3CC[C@@H]12 [Example 181, 4-[(3aR,9bR)-7-[(2-chloro-5-fluorophenyl)methoxy]-9b-(4-fluorobenzenesulfonyl)-1H,2H,3H,3aH,4H,5H,9bH-benzo[e]indole-3-carbonyl]-1λ^6-thiane-1,1-dione]
pEC50: 8.06

CC(=O)N1CCC(C(=O)N2CC[C@@]3(S(=O)(=O)c4ccc(F)cc4)c4ccc(OCc5c(F)cc(F)cc5Cl)cc4CC[C@@H]23)CC1 [Example 214, 1-{4-[(3aR,9bR)-7-[(2-chloro-4,6-difluorophenyl)methoxy]-9b-(4-fluorobenzenesulfonyl)-1H,2H,3H,3aH,4H,5H,9bH-benzo[e]indole-3-carbonyl]piperidin-1-yl}ethan-1-one]
pEC50: 8.28

CC(C)(O)CCNC(=O)N1CC[C@@]2(S(=O)(=O)c3ccccc3)c3ccc(OCc4c(Cl)cccc4Cl)cc3CC[C@@H]12 [Example 86, (3aR,9bR)-9b-(benzenesulfonyl)-7-[(2,6-dichlorophenyl)methoxy]-N-(3-hydroxy-3-methylbutyl)-1H,2H,3H,3aH,4H,5H,9bH-benzo[e]indole-3-carboxamide]
pEC50: 6.80

O=C(CN1CCS(=O)(=O)CC1)N1CC[C@@]2(S(=O)(=O)c3ccc(F)cc3)c3ccc(OCc4cc(F)ccc4Cl)cc3CC[C@@H]12 [Example 180, 4-{2-[(3aR,9bR)-7-[(2-chloro-5-fluorophenyl)methoxy]-9b-(4-fluorobenzenesulfonyl)-1H,2H,3H,3aH,4H,5H,9bH-benzo[e]indol-3-yl]-2-oxoethyl}-1λ^6-thiomorpholine-1,1-dione]
pEC50: 7.68

Cc1ccccc1Cc1ccc2c(c1)CC[C@H]1N(C(=O)CC3CCS(=O)(=O)C3)CC[C@@]21S(=O)(=O)c1ccc(F)cc1 (stereo partly drawn) [Example 47, 3-{2-[(3aR,9bR)-9b-(4-fluorobenzenesulfonyl)-7-[(2-methylphenyl)methyl]-1H,2H,3H,3aH,4H,5H,9bH-benzo[e]indol-3-yl]-2-oxoethyl}-1λ^6-thiolane-1,1-dione]
pEC50: 8.36

C[C@@H]1C[C@@H](C(=O)O)CC[C@@H]1C(=O)N1CC[C@@]2(S(=O)(=O)c3ccc(F)cc3)c3ccc(OCc4c(F)cccc4C(F)(F)F)cc3CC[C@@H]12 [Example 26, (1S,3R,4S)-4-[(3aR,9bR)-7-{[2-fluoro-6-(trifluoromethyl)phenyl]methoxy}-9b-(4-fluorobenzenesulfonyl)-1H,2H,3H,3aH,4H,5H,9bH-benzo[e]indole-3-carbonyl]-3-methylcyclohexane-1-carboxylic acid]
pEC50: 7.57

O=C(CN1CCS(=O)(=O)CC1)N1CC[C@@]2(S(=O)(=O)c3ccccc3)c3ccc(OCc4c(Cl)cccc4Cl)cc3CC[C@@H]12 [Example 74, 4-{2-[(3aR,9bR)-9b-(benzenesulfonyl)-7-[(2,6-dichlorophenyl)methoxy]-1H,2H,3H,3aH,4H,5H,9bH-benzo[e]indol-3-yl]-2-oxoethyl}-1λ^6-thiomorpholine-1,1-dione]
pEC50: 7.85

O=C(C1CCS(=O)(=O)CC1)N1CC[C@@]2(S(=O)(=O)c3ccc(F)cc3)c3ccc(OCc4c(Cl)cccc4Cl)cc3CC[C@@H]12 [Example 128, 4-[(3aR,9bR)-7-[(2,6-dichlorophenyl)methoxy]-9b-(4-fluorobenzenesulfonyl)-1H,2H,3H,3aH,4H,5H,9bH-benzo[e]indole-3-carbonyl]-1λ^6-thiane-1,1-dione]
pEC50: 7.89

O=C(N1CC[C@@]2(S(=O)(=O)c3ccccc3)c3ccc(OCc4c(Cl)cccc4Cl)cc3CC[C@@H]12)C1(O)CCS(=O)(=O)CC1 [Example 105, 4-[(3aR,9bR)-9b-(benzenesulfonyl)-7-[(2,6-dichlorophenyl)methoxy]-1H,2H,3H,3aH,4H,5H,9bH-benzo[e]indole-3-carbonyl]-4-hydroxy-1λ^6-thiane-1,1-dione]
pEC50: 8.10

CC(C)(C)OC(=O)N1CC[C@@]2(S(=O)(=O)c3ccc(F)cc3)c3ccc(Cc4ccccc4)cc3CC[C@@H]12 [Example 53, ert-butyl (3aR,9bR)-7-benzyl-9b-(4-fluorobenzenesulfonyl)-1H,2H,3H,3aH,4H,5H,9bH-benzo[e]indole-3-carboxylate]
pEC50: 7.80
